Blank lines part the entries; values can stand above or below the compound they belong to.
Molecular target: Growth hormone secretagogue receptor type 1 (Homo sapiens, UniProt Q92847)
Test: Receptor Binding Studies

Sequence of Growth hormone secretagogue receptor type 1 (Q92847 whole entry): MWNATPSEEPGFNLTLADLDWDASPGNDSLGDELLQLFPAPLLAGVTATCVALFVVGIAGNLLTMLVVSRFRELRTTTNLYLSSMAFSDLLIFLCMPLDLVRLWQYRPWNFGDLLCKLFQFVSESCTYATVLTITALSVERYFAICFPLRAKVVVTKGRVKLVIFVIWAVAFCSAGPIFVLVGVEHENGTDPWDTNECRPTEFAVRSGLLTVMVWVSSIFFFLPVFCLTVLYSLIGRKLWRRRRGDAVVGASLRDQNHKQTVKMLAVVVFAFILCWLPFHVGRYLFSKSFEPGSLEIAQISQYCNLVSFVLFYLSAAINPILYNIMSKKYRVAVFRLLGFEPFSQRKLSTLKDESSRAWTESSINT

- Kb (pH 7.3, 25 °C): 27 nM
SMILES: COc1ccc(Cn2c(CCc3c[nH]c4ccccc34)nnc2[C@@H](Cc2c[nH]c3ccccc23)NC(=O)CN)c(OC)c1 [2-amino-N-[(1R)-1-{4-[(2,4-dimethoxyphenyl)methyl]-5-[2-(1H-indol-3-yl)ethyl]-4H-1,2,4-triazol-3-yl}-2-(1H-indol-3-yl)ethyl]acetamide]

- EC50: 8.7 nM
SMILES: COc1ccc(Cn2c(CCc3c[nH]c4ccccc34)nnc2[C@@H](Cc2c[nH]c3ccccc23)NC(=O)C2CNCCN2)cc1 (stereo partly drawn) [N-[(1R)-2-(1H-indol-3-yl)-1-{5-[2-(1H-indol-3-yl)ethyl]-4-[(4-methoxyphenyl)methyl]-4H-1,2,4-triazol-3-yl}ethyl]piperazine-2-carboxamide]

- EC50: 19.6 nM
SMILES: COc1ccc(Cn2c(CCc3ccccc3)nnc2[C@@H](Cc2c[nH]c3ccccc23)NC(=O)C2CNCCN2)c(OC)c1 (stereo partly drawn) [N-[(1R)-1-{4-[(2,4-dimethoxyphenyl)methyl]-5-(2-phenylethyl)-4H-1,2,4-triazol-3-yl}-2-(1H-indol-3-yl)ethyl]piperazine-2-carboxamide]

- IC50 (pH 7.3, 25 °C): 32 nM
- Kb (pH 7.3, 25 °C): 8 nM
SMILES: COc1ccc(Cn2c(CCc3ccccc3)nnc2[C@@H](Cc2c[nH]c3ccccc23)NC(=O)[C@H]2CCCN2)cc1 [(2R)-N-[(1R)-2-(1H-indol-3-yl)-1-{4-[(4-methoxyphenyl)methyl]-5-(2-phenylethyl)-4H-1,2,4-triazol-3-yl}ethyl]pyrrolidine-2-carboxamide]

- IC50: 6 nM
- Kb: 51 nM
SMILES: COc1ccc(Cn2c(CCc3ccccc3)nnc2[C@@H](Cc2c[nH]c3ccccc23)NC(=O)C2CCOCC2)cc1 [N-[(1R)-2-(1H-indol-3-yl)-1-{4-[(4-methoxyphenyl)methyl]-5-(2-phenylethyl)-4H-1,2,4-triazol-3-yl}ethyl]oxane-4-carboxamide]

- Kb: 18 nM
SMILES: COc1ccc(Cn2c(CCc3c[nH]c4ccccc34)nnc2[C@@H](Cc2c[nH]c3ccccc23)NC(=O)C2CCCCN2)c(OC)c1 (stereo partly drawn) [N-[(1R)-1-{4-[(2,4-dimethoxyphenyl)methyl]-5-[2-(1H-indol-3-yl)ethyl]-4H-1,2,4-triazol-3-yl}-2-(1H-indol-3-yl)ethyl]piperidine-2-carboxamide]

- IC50 (pH 7.3, 25 °C): 275 nM
SMILES: CCc1ccc(Cn2c(CCc3ccccc3)nnc2[C@@H](Cc2c[nH]c3ccccc23)NC(=O)[C@H](C)N)cc1 [(2S)-2-amino-N-[(1R)-1-{4-[(4-ethylphenyl)methyl]-5-(2-phenylethyl)-4H-1,2,4-triazol-3-yl}-2-(1H-indol-3-yl)ethyl]propanamide]

- Kb (pH 7.3, 25 °C): 10 nM
SMILES: COc1ccc(Cn2c(CCc3ccccc3)nnc2[C@@H](Cc2c[nH]c3ccccc23)NC(=O)[C@H]2CCCNC2)cc1 [(3S)-N-[(1R)-2-(1H-indol-3-yl)-1-{4-[(4-methoxyphenyl)methyl]-5-(2-phenylethyl)-4H-1,2,4-triazol-3-yl}ethyl]piperidine-3-carboxamide]

- EC50: 390 nM
SMILES: COc1ccc(Cn2c(CCc3ccccc3)nnc2[C@@H](Cc2c[nH]c3ccccc23)NC(=O)C2CCCCC2)cc1 [N-[(1R)-2-(1H-indol-3-yl)-1-{4-[(4-methoxyphenyl)methyl]-5-(2-phenylethyl)-4H-1,2,4-triazol-3-yl}ethyl]cyclohexanecarboxamide]

- IC50: 468 nM
SMILES: O=C(N[C@H](Cc1c[nH]c2ccccc12)c1nnc(CCc2ccccc2)n1-c1ccccc1)C1CCNCC1 [N-[(1R)-2-(1H-indol-3-yl)-1-[4-phenyl-5-(2-phenylethyl)-4H-1,2,4-triazol-3-yl]ethyl]piperidine-4-carboxamide]

- Kb (pH 7.3, 25 °C): 32 nM
SMILES: COc1ccc(Cn2c(CCc3ccccc3)nnc2[C@@H](Cc2c[nH]c3ccccc23)NC(=O)[C@@H]2CCCN2)c(OC)c1 [(2S)-N-[(1R)-1-{4-[(2,4-dimethoxyphenyl)methyl]-5-(2-phenylethyl)-4H-1,2,4-triazol-3-yl}-2-(1H-indol-3-yl)ethyl]pyrrolidine-2-carboxamide]

- EC50 (pH 7.3, 25 °C): 256 nM
SMILES: COc1ccc(Cn2c(CCc3ccccc3)nnc2[C@@H](Cc2c[nH]c3ccccc23)NC(=O)CCN)cc1 [3-amino-N-[(1R)-2-(1H-indol-3-yl)-1-{4-[(4-methoxyphenyl)methyl]-5-(2-phenylethyl)-4H-1,2,4-triazol-3-yl}ethyl]propanamide]

- IC50: 134 nM
SMILES: COc1ccc(Cn2c(CCc3ccccc3)nnc2[C@@H](Cc2c[nH]c3ccccc23)NC(=O)[C@H]2CCCCN2)c(OC)c1 [(2R)-N-[(1R)-1-{4-[(2,4-dimethoxyphenyl)methyl]-5-(2-phenylethyl)-4H-1,2,4-triazol-3-yl}-2-(1H-indol-3-yl)ethyl]piperidine-2-carboxamide]

- EC50: 183 nM
- IC50: 560 nM
SMILES: O=C(N[C@H](Cc1c[nH]c2ccccc12)c1nnc(CCc2ccccc2)n1Cc1ccco1)C1CCNCC1 [N-[(1R)-1-[4-(furan-2-ylmethyl)-5-(2-phenylethyl)-4H-1,2,4-triazol-3-yl]-2-(1H-indol-3-yl)ethyl]piperidine-4-carboxamide]

- Kb: 5 nM
SMILES: COc1ccc(Cn2c(CCc3c[nH]c4ccccc34)nnc2[C@@H](Cc2c[nH]c3ccccc23)NC(=O)C2CNCCN2)c(OC)c1 (mixture of isomers) [N-[(1R)-1-{4-[(2,4-dimethoxyphenyl)methyl]-5-[2-(1H-indol-3-yl)ethyl]-4H-1,2,4-triazol-3-yl}-2-(1H-indol-3-yl)ethyl]piperazine-2-carboxamide]

- Kb: 8 nM
SMILES: COc1ccc(Cn2c(CCc3c[nH]c4ccccc34)nnc2[C@@H](Cc2c[nH]c3ccccc23)NC(=O)[C@H]2CCCCN2)cc1 [(2R)-N-[(1R)-2-(1H-indol-3-yl)-1-{5-[2-(1H-indol-3-yl)ethyl]-4-[(4-methoxyphenyl)methyl]-4H-1,2,4-triazol-3-yl}ethyl]piperidine-2-carboxamide]

- IC50: 375 nM
SMILES: CCc1ccc(Cn2c(CCc3ccccc3)nnc2[C@@H](Cc2c[nH]c3ccccc23)NC(=O)[C@H]2CCCCN2)cc1 [(2R)-N-[(1R)-1-{4-[(4-ethylphenyl)methyl]-5-(2-phenylethyl)-4H-1,2,4-triazol-3-yl}-2-(1H-indol-3-yl)ethyl]piperidine-2-carboxamide]

- EC50: 143 nM
- IC50: 178 nM
SMILES: CCc1ccc(Cn2c(CCc3ccccc3)nnc2[C@@H](Cc2c[nH]c3ccccc23)NC(=O)C2CNCCN2)cc1 (stereo partly drawn) [N-[(1R)-1-{4-[(4-ethylphenyl)methyl]-5-(2-phenylethyl)-4H-1,2,4-triazol-3-yl}-2-(1H-indol-3-yl)ethyl]piperazine-2-carboxamide]

- IC50 (pH 7.3, 25 °C): > 1000 nM
SMILES: O=C(N[C@H](Cc1c[nH]c2ccccc12)c1nnc(CCc2ccccc2)n1Cc1ccccn1)C1CCCNC1 (stereo partly drawn) [N-[(1R)-2-(1H-indol-3-yl)-1-[5-(2-phenylethyl)-4-(pyridin-2-ylmethyl)-4H-1,2,4-triazol-3-yl]ethyl]piperidine-3-carboxamide]

- Kb (pH 7.3, 25 °C): 4 nM
SMILES: COc1ccc(Cn2c(CCc3c[nH]c4ccccc34)nnc2[C@@H](Cc2c[nH]c3ccccc23)NC(=O)C(C)(C)N)cc1

- IC50 (pH 7.3, 25 °C): > 1000 nM
SMILES: O=C(N[C@H](Cc1c[nH]c2ccccc12)c1nnc(CCc2ccccc2)n1-c1ccccc1)[C@@H]1CCCN1 [(2S)-N-[(1R)-2-(1H-indol-3-yl)-1-[4-phenyl-5-(2-phenylethyl)-4H-1,2,4-triazol-3-yl]ethyl]pyrrolidine-2-carboxamide]

- Kb (pH 7.3, 25 °C): 7 nM
SMILES: COc1ccc(Cn2c(CCc3c[nH]c4ccccc34)nnc2[C@@H](Cc2c[nH]c3ccccc23)NC(=O)[C@H]2CCCN2)cc1 [(2R)-N-[(1R)-2-(1H-indol-3-yl)-1-{5-[2-(1H-indol-3-yl)ethyl]-4-[(4-methoxyphenyl)methyl]-4H-1,2,4-triazol-3-yl}ethyl]pyrrolidine-2-carboxamide]

- IC50 (pH 7.3, 25 °C): 9.5 nM
- Kb (pH 7.3, 25 °C): 13 nM
SMILES: COc1ccc(Cn2c(CCc3ccccc3)nnc2[C@@H](Cc2c[nH]c3ccccc23)NC(=O)[C@@H]2CCCN2)cc1 [(2S)-N-[(1R)-2-(1H-indol-3-yl)-1-{4-[(4-methoxyphenyl)methyl]-5-(2-phenylethyl)-4H-1,2,4-triazol-3-yl}ethyl]pyrrolidine-2-carboxamide]

- EC50: 12 nM
SMILES: COc1ccc(Cn2c(CCc3ccccc3)nnc2[C@@H](Cc2c[nH]c3ccccc23)NC(=O)C2CNCCN2)cc1 (stereo partly drawn) [N-[(1R)-2-(1H-indol-3-yl)-1-{4-[(4-methoxyphenyl)methyl]-5-(2-phenylethyl)-4H-1,2,4-triazol-3-yl}ethyl]piperazine-2-carboxamide]

- EC50: 14 nM
SMILES: COc1ccc(-n2c(CCc3ccccc3)nnc2[C@@H](Cc2c[nH]c3ccccc23)NC(=O)C2CCNCC2)c(OC)c1 [N-[(1R)-1-[4-(2,4-dimethoxyphenyl)-5-(2-phenylethyl)-4H-1,2,4-triazol-3-yl]-2-(1H-indol-3-yl)ethyl]piperidine-4-carboxamide]

- IC50 (pH 7.3, 25 °C): 490 nM
SMILES: CCc1ccc(Cn2c(CCc3ccccc3)nnc2[C@@H](Cc2c[nH]c3ccccc23)NC(=O)[C@@H]2CCCN2)cc1 [(2S)-N-[(1R)-1-{4-[(4-ethylphenyl)methyl]-5-(2-phenylethyl)-4H-1,2,4-triazol-3-yl}-2-(1H-indol-3-yl)ethyl]pyrrolidine-2-carboxamide]

- IC50 (pH 7.3, 25 °C): 113 nM
SMILES: COc1ccc(Cn2c(CCc3ccccc3)nnc2[C@@H](Cc2c[nH]c3ccccc23)NC(=O)[C@H](C)N)cc1 [(S)-N-((R)-1-(4-(4-Methoxybenzyl)-5-phenethyl-4H-1,2,4-triazol-3-yl)-2-(1H-indol-3-yl)ethyl)-2-aminopropanamide]

- Kb (pH 7.3, 25 °C): 24 nM
SMILES: COc1ccc(Cn2c(CCc3ccccc3)nnc2[C@@H](Cc2c[nH]c3ccccc23)NC(=O)[C@@H](N)Cc2ccccc2)cc1 [(2S)-2-amino-N-[(1R)-2-(1H-indol-3-yl)-1-{4-[(4-methoxyphenyl)methyl]-5-(2-phenylethyl)-4H-1,2,4-triazol-3-yl}ethyl]-3-phenylpropanamide]

- EC50: 6.1 nM
SMILES: COc1ccc(Cn2c(CCc3ccccc3)nnc2[C@@H](Cc2c[nH]c3ccccc23)NC(=O)C2CCNCC2)c(OC)c1 [N-[(1R)-1-{4-[(2,4-dimethoxyphenyl)methyl]-5-(2-phenylethyl)-4H-1,2,4-triazol-3-yl}-2-(1H-indol-3-yl)ethyl]piperidine-4-carboxamide]

- EC50: 1.6 nM
SMILES: COc1ccc(Cn2c(CCc3ccccc3)nnc2[C@@H](Cc2c[nH]c3ccccc23)NC(=O)C2CCNCC2)cc1 [N-[(1R)-2-(1H-indol-3-yl)-1-{4-[(4-methoxyphenyl)methyl]-5-(2-phenylethyl)-4H-1,2,4-triazol-3-yl}ethyl]piperidine-4-carboxamide]

- Kb (pH 7.3, 25 °C): 11 nM
SMILES: COc1ccc(Cn2c(CCc3c[nH]c4ccccc34)nnc2[C@@H](Cc2c[nH]c3ccccc23)NC(=O)[C@@H]2CCCN2)c(OC)c1

From BindingDB's records for doi:10.1021/jm0704550 (Cnrs, 2007)
